{
  "source": "patent US20200352914A1",
  "about": "“METHODS OF TREATING HYPERTENSION WITH ACTIVATORS OF TIE-2” (Aerpio Pharmaceuticals, Inc., priority 2019, published 2020)",
  "test_system": "eNOS",
  "assay": "eNOS and Akt phosphorylation in human endothelial cells (immunoprecipitation, immunoblotting)",
  "type": "cell-based",
  "method": "Confluent monolayers of human endothelial cells expressing FLAG-tagged eNOS cultured overnight in MCDB131 containing 0.1% BSA and then incubated with increasing concentrations of Compound 2 (0.3-30 μmol/L) or solvent (DMSO) for 30 minutes. In separate experiments, human endothelial cells were cultured overnight in MCDB131 containing 0.1% BSA and then incubated treated with Compound 2 (30 μmol/L) or solvent for 30 minutes and then stimulated with Yoda1 (1 μmol/L) or solvent for an additional 30 minutes. To inhibit Src, cells were pre-incubated with PP2 (1 μmol/L) for 30 min before incubation with Compound 2 and stimulation with Yoda1. After two washes with cold PBS, cells were collected with the aid of cell scrapers in a lysis buffer containing Tris/HCl pH 7.5 (50 mmol/L), NaCl (150 mmol/L), Triton X-100 (1%), NaPPi (10 mmol/L), NaF (20 mmol/L), orthovanadate (2 mmol/L), okadaic acid (10 nmol/L), β-glycerophosphate (50 mmol/L), phenylmethylsulfonyl fluoride (230 μmol/L), and EDTA-free protease inhibitors mix. The cell mixture was incubated for 30 minutes at 4° C. with vortexing, followed by centrifugation at 13000 rpm for 10 minutes at 4° C. To assess the eNOS-VE-PTP interaction, the following modifications were applied: 1) cells were incubated with the lysis buffer for one hour on an end-over-end rocker at 4° C. and gently vortexed until no cell clumps were observed; 2) lysates were not centrifuged after lysis. FLAG-tagged eNOS was immunoprecipitated using 30 μL of packed Anti-FLAG M2 Affinity Gel per mg protein lysate overnight. The recovered immunoprecipitates were washed three times with the lysis buffer, eluted by boiling samples for 10 minutes in SDS sample buffer, and then analyzed by SDS-PAGE and immunoblotting.\nProtein samples were separated by SDS-PAGE and then transferred to […] nitrocellulose membranes. Membranes were incubated overnight with primary antibodies against phospho-Tyr81 eNOS, phospho-Ser1177 eNOS, phospho-Ser633 eNOS, eNOS, phospho-Ser473 Akt, Akt, ABL1, VE-PTP, GAPDH, β-actin, followed by species-specific secondary antibodies anti-IgG conjugated with HRP. Proteins were visualized by enhanced chemiluminescence.",
  "key": {"[1]": {"details": "30 μmol/L 30 minutes, then Yoda1 1 μmol/L 30 min"}},
  "data": [
    {"compound": "CCc1nc([C@H](Cc2ccc(NS(=O)(=O)O)cc2)NC(=O)[C@H](Cc2ccccc2)NC(=O)OC)cs1", "note": "[Compound 2]", "values": [
      {"measurement": "Yoda1-induced phosphorylation of Akt on Ser473 and eNOS on Ser1177", "setting": "[1]", "value": "also increased"},
      {"measurement": "Yoda1-induced phosphorylation of eNOS on Ser633", "setting": "[1]", "value": "not affected"},
      {"measurement": "Yoda1-induced phosphorylation of eNOS on Tyr81", "setting": "[1]", "value": "markedly enhanced"},
      {"measurement": "eNOS phosphorylation on Tyr81 and Ser1177", "setting": "0.3-30 μmol/L, 30 minutes", "value": "led to phosphorylation of eNOS on Tyr81 and Ser1177"}
    ]}
  ]
}
